According to patent US9464121B2, “Compositions and methods for treating erectile dysfunction” (priority 2007, dated 2016):
“Also recorded” adds a separate entry of the source. Where a name gives a salt, the structure may show the parent alone.

Legend:
corpus cavernosum [1] = assay: In vitro corpus cavernosum assay for smooth muscle relaxation (isolated organ chamber, phenylephrine-contracted tissue); type: cell-based, Wistar adult male rats
Experimental: The effect of polypeptides on corpus cavernosum contractile activity in vitro was analyzed in corpus cavernosum tissue harvested from Wistar adult male rats. Tissue was vertically positioned in an isolated organ chamber under the conditions described below. Adult male Wistar rats, aged 1.5-2 months and 250-350 g in weight were sacrificed by cervical dislocation and the penis was removed from the base, yielding about 2 cm of isolated tissue. The penile tissue was dissected under a Zeiss STEMI DV4 stereoscopic magnifying glass. The tunica albuginea, which protects the cavernous and spongious corpuses, was gently removed. The cavernous bodies were removed from their central position, obtaining two fragments of equal length and diameter, which were then transferred to a Tyrode physiological solution properly oxygenated (mix of 95% O2 and 5% CO2), at 37° C. at pH 7.4.
The cavernous segments were tied with silk at their distal and proximal extremes and immersed in a Tyrode physiologic solution in the chambers. The distal part was tied to the connecting rod and the proximal portion was connected to the isometric contraction transducer (TRI 201/0-25 g) connected to an analogue/digital interphase Power Lab/4SP Ad instrument, making it possible to store and analyse the registered signals by the use of Chart 5 software. Essentially, the fragments were connected to a analogic tension transducer, which transferred its signal to a Power Lab-Letica interphase, which records, graphs and stores the information generated by the physiologic preparation in force/time (g/min scale).
Prior to assaying the polypeptides, the isolated corpus cavernosum samples were stabilized as follows. After placing the corpus cavernosum in the isolated organ chamber, a 0.5 g tension at a normal velocity (1:1 proportion) was applied for one hour. During this time the basal tension and oxygenation (10 ml/min) remained constant. After the first 20 minutes, the preparation was washed using Tyrode physiologic solution, the tension was fixed and the procedure was repeated every 20 minutes for a total of 4 times. In the final washing process, in Chart 5 control system, the recording speed was modified from 10× to 1×.
The ability of f40/7841 to induce smooth muscle relaxation was assayed in the corpus cavernosum assay described in Example 2 in the presence of 50 μM phenylephrine, a pharmacological agonist of the alpha-adrenergic receptor that induces smooth muscle contraction.
To determine the relaxation potential it was necessary to induce first a maximum contractile response (control), in the presence of a drug that activates α-adrenergic receptors, phenylephrine (50 μM). The obtained results of the experimental series are statistically analyzed with a statistical significance of P<0.05, and graphed with GraphPad Prim.V.3.02 software.

[2] = target: T1, alpha 7 nicotinic acetylcholine receptor (α7nAch) (Homo sapiens, UniProt P36544); assay: Whole-cell patch clamp of PC12 cells engineered to express the alpha 7 nicotinic acetylcholine receptor; type: cell-based
T1 construct: expressed in transfected cells; host or cells: PC12 cells
T1 sequence (P36544 23-502): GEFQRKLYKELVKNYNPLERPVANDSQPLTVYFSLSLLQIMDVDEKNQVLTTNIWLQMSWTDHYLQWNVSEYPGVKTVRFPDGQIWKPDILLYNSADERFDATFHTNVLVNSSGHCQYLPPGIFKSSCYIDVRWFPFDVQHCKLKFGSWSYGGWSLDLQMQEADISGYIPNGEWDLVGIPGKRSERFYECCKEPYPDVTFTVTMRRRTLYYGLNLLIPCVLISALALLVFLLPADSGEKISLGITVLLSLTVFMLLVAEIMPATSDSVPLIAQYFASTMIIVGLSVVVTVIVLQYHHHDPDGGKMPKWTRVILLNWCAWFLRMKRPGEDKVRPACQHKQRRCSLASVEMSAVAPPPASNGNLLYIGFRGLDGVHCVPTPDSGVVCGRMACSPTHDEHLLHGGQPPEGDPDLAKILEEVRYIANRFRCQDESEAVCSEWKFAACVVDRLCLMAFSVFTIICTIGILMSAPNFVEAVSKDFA
Experimental: The ability of the f40/7841 polypeptide to activate nicotinic acetylcholine receptors (nAChR) was assayed by whole cell patch clamp analysis of PC12 cells that had been engineered to express the alpha 7 nicotinic acetylcholine receptor (α7nAch). PC12 cells were transfected and cultured for 48 hours in an 80% of MEM, solution that contained (mM): 150 NaCl, 5.4 KCl, 2.0 CaCl2, 1.0 MgCl2, 10 glucose and 10 Hepes (7.4), 2 mM, and 10% of fetal bovine serum at 37° C. (Trifaro et al. In vitro Cell Dev. Biol. 1990). The cells were incubated for one hour at 22° C. before starting the experiments. The current changes were detected through a whole-cell patch-clamp system through a Warner PC-501^a amplifier and an inverted Olympus 9° 70 microscope. The membrane potential was adjusted to −60 mV; the current was recorded at intervals of 5 μs and it was filtered at 2 Kh using a computer connected to a recording system through an acquisition card Digidata 9.0 (Axon Instrument, Inc) and the software PC 9 (Axon Instrument, Inc). The stock solution for the assays with the peptides were kept refrigerated at 4° C. and the micropipettes contained an internal solution of: 140 mM NaCl, 5 mM KCl, 2 mM CaCl2, 1.5 mM MgCl2, and 10 mM HEPES, pH 7.4.
The purified f40/7841 polypeptide was purified according to the method in Example 1. 0.1 mg of the polypeptide was diluted in 100 μl. of sterile PBS at pH 7.4. […]

C2C12 myoblasts = assay: Intracellular calcium determination with Fluo-3AM (confocal microscopy); type: cell-based
Experimental: To confirm that the f40/7841 polypeptide had no effect on calcium flux, C2C12 myoblasts were treated with f40/7841 polypeptide and intracellular calcium levels were assayed using the calcium-sensitive fluorchrome, Fluo-3AM. For the intracellular Ca^2+ measurements, a Confocal LSM 510 Meta Confocal (Zeiss, Jena, Alemania) microscope with a lasing line excitation of 488 nm was used. C2C12 cells were seeded in 60 mm culture dishes (Nalge Nunc International, Rochester, N.Y.) and cultured for 48 hours at which time each plate contained about 250,000 cells. The cells were loaded with fluorochrome in concentration of 4 μM fluo-3AM (Sigma) in 0.5% Me2SO and 0.1% of pluronic acid F-127 for 30 minutes at 37° C.; washed three times with a modified Dulbecco's solution with 10% of fetal bovine serum and returned to the incubator.
The fluorescence of Fluo-3AM was stimulated at 488 nm and measured at 515 nm using a bandpass filter. The intracellular Ca^2+ was measured for 10 seconds, followed by the addition of 1 μM f40/7841 polypeptide and 1.5 mM of carbachol. The Ca^2+ changes were monitored for 2 minutes and the images were taken every 1.5 sec. The calcium ionophore 4-Br-A23187 (5 μM) followed by 10 mM EGTA were then added to obtain the maximum calcium excitation (Fmax) and the minimum fluorescence (Fmin), respectively. The intracellular [Ca^2+] of fluorescence (F) obtained by the used f40/7841 was calculated in the following way: intracellular [Ca^2+]=Kd*(*F−F*min)/(*F*max−*F*), assuming 450 nM. *Kd* for the fluo-3AM, the concentrations were calculated in cellular populations that contained at least 10 cells.

corpus cavernosum [3] = assay: In vitro corpus cavernosum assay for smooth muscle relaxation (isolated organ chamber, phenylephrine-contracted tissue); type: cell-based, Wistar adult male rats; settings: phenylephrine 5 μM, atropine 1 μM, polypeptide 1 μgml (FIG. 13)

Molecule: CN1[C@@H]2CC[C@H]1C[C@@H](OC(=O)C(CO)c1ccccc1)C2 (some centres unmarked) [atropine]
- tonic response to phenylephrine in the presence of atropine (corpus cavernosum [1]; atropine 1 uM added after 40 minutes of phenylephrine (FIG. 13, upper tracing)): gradually reduced over time

Molecule: CNC[C@H](O)c1cccc(O)c1 [phenylephrine]
- contractile response of corpus cavernosum (corpus cavernosum [1]; phenylephrine 50 μM (FIG. 7, FIG. 9)): phasic contractile response followed by a steadily maintained tonic response; also recorded: quick phasic contraction

Molecule: C[N+](C)(C)CCOC(N)=O [carbachol]
- potassium current ([2]; 10 μM carbachol, positive control, membrane potential −60 mV (FIG. 15)): 10 pA

Molecule: CCCc1nn(C)c2c(=O)[nH]c(-c3cc(S(=O)(=O)N4CCN(C)CC4)ccc3OCC)nc12 [sildenafil citrate, 1-[4-ethoxy-3-(6,7-dihydro-1-methyl-7-oxo-3-propyl-1H-pyrazolo[4,3-d]pyrimidin-5-yl)phenylsulfonyl]-4-methylpiperazine]
- contractile response after sildenafil citrate alone (corpus cavernosum [1]; 1 μM, after 50 μM phenylephrine, over a period of 25-30 minutes (FIG. 1)): slow decrease of the contractile response
- concentration of sildenafil citrate alone required for a relaxation rate comparable to f40/7841 plus 1 μM sildenafil citrate (corpus cavernosum [1]; after 50 μM phenylephrine, typical value): 100 µM

Molecule: CNc1c(Br)cc2oc(C[C@H]3OC4(CC[C@H]3C)O[C@H]([C@H](C)C(=O)c3ccc[nH]3)[C@H](C)C[C@H]4C)nc2c1C(=O)O (some centres unmarked) [4-Br-A23187]
- Fluo-3AM fluorescence (calcium) after ionophore (C2C12 myoblasts; 4-Br-A23187 5 μM, positive control (FIG. 17)): sharp spike of fluorescence

Molecule: O=C(O)CN(CCOCCOCCN(CC(=O)O)CC(=O)O)CC(=O)O [EGTA]
- effect on ionophore-induced fluorescence spike (C2C12 myoblasts; 10 mM EGTA added after 4-Br-A23187 (FIG. 17)): abolished

B1: f40/7841 (protein)
chain: GDSLDPAEFACADDIDQAELLKNNDICLQCEDLHKEGLVFSLCKTNCFSTEYFQHCVKDLEEAKKEPPE
modifications: also: blocked N-terminus, not given here
- rapid potassium current ([2]; 0.1 μg/ml polypeptide, membrane potential −60 mV (FIG. 16, in the presence of carbachol)): 500 pA
- ability to induce relaxation in the presence of atropine (corpus cavernosum [3]): attenuated
- calcium flux (intracellular Ca2+, Fluo-3AM fluorescence) (C2C12 myoblasts; 1 μM polypeptide and 1.5 mM carbachol, monitored for 2 minutes (FIG. 17)): did not induce calcium flux
- ability to induce relaxation, atropine added prior to phenylephrine (corpus cavernosum [1]; 1 μM atropine, then phenylephrine 50 μM, polypeptide 2 μg/ml after twenty minutes (FIG. 14)): attenuated
- effect on tonic contraction (relaxation) (corpus cavernosum [1]; 2 μg/ml added after 20 minutes of 50 μM phenylephrine (FIG. 10)): rapid decrease in tonic contraction
- relaxation of contracted tissue in the presence of L-NAME (nitric oxide synthase inhibitor) (corpus cavernosum [1]; phenylephrine, then L-NAME 10 mM, then polypeptide 0.02, 0.2 or 2 μg/ml (FIG. 11, FIG. 12), listed as f40/7481): did not induce a decrease in contraction; also recorded: abolished
- contractile response on co-addition with sildenafil citrate, compared to sildenafil citrate alone (corpus cavernosum [1]; polypeptide 2 μg/ml plus 1 μM sildenafil citrate, after 50 μM phenylephrine (FIG. 1)): significant decrease in the contractile response
